How the values were obtained:
[1] = target: T1, Serine/threonine-protein kinase Nek9 (Homo sapiens) (UniProt Q8TD19); experiment: NEK9 Invitrogen selectivity data (BI); conditions: Compound concentration 3.0 uM
T1 sequence (whole entry): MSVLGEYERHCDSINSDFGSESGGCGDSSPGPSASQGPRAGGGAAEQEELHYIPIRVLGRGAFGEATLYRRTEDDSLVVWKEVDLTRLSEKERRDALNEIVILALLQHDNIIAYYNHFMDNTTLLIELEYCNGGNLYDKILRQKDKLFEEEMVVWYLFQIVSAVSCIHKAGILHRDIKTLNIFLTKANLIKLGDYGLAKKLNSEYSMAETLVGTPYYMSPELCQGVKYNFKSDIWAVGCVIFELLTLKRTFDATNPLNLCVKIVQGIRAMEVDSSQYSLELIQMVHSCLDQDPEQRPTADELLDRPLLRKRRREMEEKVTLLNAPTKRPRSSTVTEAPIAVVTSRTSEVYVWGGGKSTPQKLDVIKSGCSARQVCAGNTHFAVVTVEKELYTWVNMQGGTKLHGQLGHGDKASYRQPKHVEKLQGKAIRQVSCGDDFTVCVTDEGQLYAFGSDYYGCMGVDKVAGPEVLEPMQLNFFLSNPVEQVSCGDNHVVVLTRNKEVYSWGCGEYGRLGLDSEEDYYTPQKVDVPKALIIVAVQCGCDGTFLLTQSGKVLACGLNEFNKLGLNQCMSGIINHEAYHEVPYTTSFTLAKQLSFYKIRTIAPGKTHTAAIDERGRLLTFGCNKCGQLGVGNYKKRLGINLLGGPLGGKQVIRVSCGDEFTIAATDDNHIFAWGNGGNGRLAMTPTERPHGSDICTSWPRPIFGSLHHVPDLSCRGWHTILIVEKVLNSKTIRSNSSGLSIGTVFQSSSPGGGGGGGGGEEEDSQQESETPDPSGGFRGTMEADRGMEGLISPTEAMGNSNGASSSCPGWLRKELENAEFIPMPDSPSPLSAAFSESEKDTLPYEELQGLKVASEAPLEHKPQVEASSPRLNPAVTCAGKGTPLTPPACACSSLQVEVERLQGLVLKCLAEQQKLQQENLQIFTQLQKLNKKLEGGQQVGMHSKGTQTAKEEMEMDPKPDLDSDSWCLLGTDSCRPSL

[2] = target: 3-phosphoinositide-dependent protein kinase 1 (Homo sapiens) (UniProt O15530); experiment: PDK1DIRECT Invitrogen selectivity data (BI); conditions: Compound concentration 3.0 uM
[3] = target: Tyrosine-protein kinase Srms (Homo sapiens) (UniProt Q9H3Y6); experiment: SRMS Invitrogen selectivity data (BI); conditions: Compound concentration 3.0 uM
[4] = target: T2, 5-hydroxytryptamine receptor 1A (Homo sapiens) (UniProt P08908); experiment: 5HT1A/H Cerep selectivity data (BI); conditions: Compound concentration 20.0 uM
T2 sequence (whole entry): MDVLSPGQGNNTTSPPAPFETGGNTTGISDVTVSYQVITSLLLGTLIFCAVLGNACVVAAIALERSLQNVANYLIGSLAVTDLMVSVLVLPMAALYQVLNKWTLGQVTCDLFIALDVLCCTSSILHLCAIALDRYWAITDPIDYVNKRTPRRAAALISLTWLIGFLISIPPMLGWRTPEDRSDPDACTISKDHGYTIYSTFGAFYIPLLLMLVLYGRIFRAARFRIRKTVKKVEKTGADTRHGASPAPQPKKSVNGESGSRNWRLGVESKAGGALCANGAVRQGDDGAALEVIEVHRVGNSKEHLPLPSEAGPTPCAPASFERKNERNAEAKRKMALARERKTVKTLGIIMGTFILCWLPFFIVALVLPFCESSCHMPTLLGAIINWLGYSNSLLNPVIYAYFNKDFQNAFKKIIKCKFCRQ

[5] = target: Platelet-derived growth factor receptor beta (Homo sapiens) (UniProt P09619); experiment: PDGFRB Invitrogen selectivity data (BI); conditions: Compound concentration 3.0 uM
[6] = target: Neuropeptide Y receptor type 2 (Homo sapiens) (UniProt P49146); experiment: Y2/HU Eurofins-Panlabs selectivity data (BI); conditions: Compound concentration 10.0 uM
[7] = target: T3, Protein kinase C iota type (Homo sapiens) (UniProt P41743); experiment: PRKCI Invitrogen selectivity data (BI); conditions: Compound concentration 3.0 uM
T3 sequence (whole entry): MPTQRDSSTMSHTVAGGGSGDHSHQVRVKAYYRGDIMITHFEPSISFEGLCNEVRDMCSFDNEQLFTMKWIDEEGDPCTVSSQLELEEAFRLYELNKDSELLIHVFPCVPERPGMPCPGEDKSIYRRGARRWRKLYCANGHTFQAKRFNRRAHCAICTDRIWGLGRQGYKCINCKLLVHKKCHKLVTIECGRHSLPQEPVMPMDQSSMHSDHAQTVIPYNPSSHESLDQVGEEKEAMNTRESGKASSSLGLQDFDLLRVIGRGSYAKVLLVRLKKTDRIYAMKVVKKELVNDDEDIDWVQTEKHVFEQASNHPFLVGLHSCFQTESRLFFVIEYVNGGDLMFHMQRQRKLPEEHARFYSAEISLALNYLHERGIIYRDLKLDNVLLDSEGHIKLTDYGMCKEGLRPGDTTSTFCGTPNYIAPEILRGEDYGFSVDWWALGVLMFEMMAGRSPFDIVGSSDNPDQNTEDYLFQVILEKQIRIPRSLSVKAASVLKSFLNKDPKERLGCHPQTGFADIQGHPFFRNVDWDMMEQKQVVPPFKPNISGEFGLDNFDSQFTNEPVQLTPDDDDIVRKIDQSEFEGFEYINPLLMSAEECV

[8] = target: B2 bradykinin receptor (Homo sapiens) (UniProt P30411); experiment: B2/H Eurofins-Panlabs selectivity data (BI); conditions: filed as antagonist, Compound concentration 10.0 uM
[9] = target: Serine/threonine-protein kinase 26 (Homo sapiens) (UniProt Q9P289); experiment: MST4 Invitrogen selectivity data (BI); conditions: Compound concentration 3.0 uM
[10] = target: Tyrosine-protein kinase SYK (Homo sapiens) (UniProt P43405); experiment: SYK Invitrogen selectivity data (BI); conditions: Compound concentration 3.0 uM
[11] = target: Nicotinic acetylcholine receptor alpha-1/beta-1 (Homo sapiens) (UniProt P02708+P11230); experiment: NMUSCLEH_ANTAG Cerep selectivity data (BI); format: protein-complex assay; conditions: filed as antagonist, Compound concentration 20.0 uM
[12] = target: Dual specificity mitogen-activated protein kinase kinase 2 (Homo sapiens) (UniProt P36507); experiment: MAP2K2 Invitrogen selectivity data (BI); conditions: Compound concentration 3.0 uM
[13] = target: Dual specificity tyrosine-phosphorylation-regulated kinase 1B (Homo sapiens) (UniProt Q9Y463); experiment: DYRK1B Invitrogen selectivity data (BI); conditions: Compound concentration 3.0 uM
[14] = target: Calcium/calmodulin-dependent protein kinase type II subunit alpha (Homo sapiens) (UniProt Q9UQM7); experiment: CAMK2ALPHA(H) Cerep selectivity data (BI); conditions: Compound concentration 20.0 uM
[15] = target: Nitric oxide synthase, inducible (Mus musculus) (UniProt P29477); experiment: INDUC_NOS Cerep selectivity data (BI); conditions: Compound concentration 20.0 uM
[16] = target: Mitogen-activated protein kinase kinase kinase 11 (Homo sapiens) (UniProt Q16584); experiment: MAP3K11 Invitrogen selectivity data (BI); conditions: Compound concentration 3.0 uM
[17] = target: B1 bradykinin receptor (Homo sapiens) (UniProt P46663); experiment: B1/H Eurofins-Panlabs selectivity data (BI); conditions: Compound concentration 10.0 uM
[18] = target: Rod cGMP-specific 3',5'-cyclic phosphodiesterase subunit alpha (Bos taurus) (UniProt P11541); experiment: PDE6_CE Cerep selectivity data (BI); conditions: Compound concentration 20.0 uM

Measured: residual activity

3-phosphoinositide-dependent protein kinase 1 (Homo sapiens), sequence (O15530 whole entry, looked up): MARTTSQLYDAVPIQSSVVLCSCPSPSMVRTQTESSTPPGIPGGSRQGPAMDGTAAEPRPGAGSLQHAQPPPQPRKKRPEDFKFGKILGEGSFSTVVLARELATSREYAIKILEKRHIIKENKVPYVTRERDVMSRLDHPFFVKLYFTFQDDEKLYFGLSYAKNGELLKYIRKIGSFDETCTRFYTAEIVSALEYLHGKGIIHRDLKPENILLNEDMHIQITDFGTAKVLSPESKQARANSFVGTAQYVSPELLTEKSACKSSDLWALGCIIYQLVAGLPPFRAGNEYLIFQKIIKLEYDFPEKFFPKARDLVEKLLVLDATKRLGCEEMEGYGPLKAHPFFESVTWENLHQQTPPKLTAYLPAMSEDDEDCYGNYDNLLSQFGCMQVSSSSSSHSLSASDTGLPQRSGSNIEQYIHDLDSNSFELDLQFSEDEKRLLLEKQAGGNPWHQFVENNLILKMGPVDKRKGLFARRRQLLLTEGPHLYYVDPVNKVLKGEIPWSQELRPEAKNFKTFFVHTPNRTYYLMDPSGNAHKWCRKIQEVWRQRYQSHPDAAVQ
B1 bradykinin receptor (Homo sapiens), sequence (P46663 whole entry): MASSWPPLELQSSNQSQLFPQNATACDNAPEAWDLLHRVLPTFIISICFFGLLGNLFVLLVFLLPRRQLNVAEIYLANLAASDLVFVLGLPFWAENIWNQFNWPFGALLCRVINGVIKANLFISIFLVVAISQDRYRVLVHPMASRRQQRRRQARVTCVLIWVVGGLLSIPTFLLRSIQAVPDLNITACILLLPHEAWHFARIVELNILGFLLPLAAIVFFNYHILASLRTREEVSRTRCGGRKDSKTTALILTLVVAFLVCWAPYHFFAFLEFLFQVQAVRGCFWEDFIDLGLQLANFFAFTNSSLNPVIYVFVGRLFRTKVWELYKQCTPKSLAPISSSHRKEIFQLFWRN
Nitric oxide synthase, inducible (Mus musculus), sequence (P29477 whole entry): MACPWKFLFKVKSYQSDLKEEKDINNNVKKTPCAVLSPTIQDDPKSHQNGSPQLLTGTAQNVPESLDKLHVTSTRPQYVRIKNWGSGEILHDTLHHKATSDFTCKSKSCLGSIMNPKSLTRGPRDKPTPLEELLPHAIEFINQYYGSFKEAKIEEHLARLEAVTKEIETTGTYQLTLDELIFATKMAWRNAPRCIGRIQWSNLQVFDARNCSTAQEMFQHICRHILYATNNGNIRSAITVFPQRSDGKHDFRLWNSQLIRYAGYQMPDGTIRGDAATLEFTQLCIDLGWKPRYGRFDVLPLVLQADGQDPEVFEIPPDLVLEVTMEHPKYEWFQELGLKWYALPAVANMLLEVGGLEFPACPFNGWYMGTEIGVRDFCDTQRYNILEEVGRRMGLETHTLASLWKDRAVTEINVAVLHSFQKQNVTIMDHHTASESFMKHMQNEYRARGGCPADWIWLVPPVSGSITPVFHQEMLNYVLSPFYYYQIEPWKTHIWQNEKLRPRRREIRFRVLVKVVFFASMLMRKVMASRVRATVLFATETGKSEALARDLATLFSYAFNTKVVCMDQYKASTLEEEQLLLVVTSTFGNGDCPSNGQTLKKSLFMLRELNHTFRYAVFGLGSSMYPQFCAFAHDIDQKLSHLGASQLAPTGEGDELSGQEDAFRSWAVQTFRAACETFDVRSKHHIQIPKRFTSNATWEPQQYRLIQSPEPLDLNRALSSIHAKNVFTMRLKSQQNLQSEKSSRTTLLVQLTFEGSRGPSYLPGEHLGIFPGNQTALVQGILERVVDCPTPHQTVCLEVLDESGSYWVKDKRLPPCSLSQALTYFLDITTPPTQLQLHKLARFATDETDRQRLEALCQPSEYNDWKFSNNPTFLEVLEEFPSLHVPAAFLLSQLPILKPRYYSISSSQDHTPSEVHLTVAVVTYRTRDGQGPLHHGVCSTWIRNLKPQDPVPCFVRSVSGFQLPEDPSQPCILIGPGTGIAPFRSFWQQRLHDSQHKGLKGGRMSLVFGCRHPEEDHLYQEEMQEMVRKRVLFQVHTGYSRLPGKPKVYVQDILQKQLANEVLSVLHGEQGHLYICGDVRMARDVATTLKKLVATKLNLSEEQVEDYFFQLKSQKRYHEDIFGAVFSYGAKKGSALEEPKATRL
Rod cGMP-specific 3',5'-cyclic phosphodiesterase subunit alpha (Bos taurus), sequence (P11541 whole entry): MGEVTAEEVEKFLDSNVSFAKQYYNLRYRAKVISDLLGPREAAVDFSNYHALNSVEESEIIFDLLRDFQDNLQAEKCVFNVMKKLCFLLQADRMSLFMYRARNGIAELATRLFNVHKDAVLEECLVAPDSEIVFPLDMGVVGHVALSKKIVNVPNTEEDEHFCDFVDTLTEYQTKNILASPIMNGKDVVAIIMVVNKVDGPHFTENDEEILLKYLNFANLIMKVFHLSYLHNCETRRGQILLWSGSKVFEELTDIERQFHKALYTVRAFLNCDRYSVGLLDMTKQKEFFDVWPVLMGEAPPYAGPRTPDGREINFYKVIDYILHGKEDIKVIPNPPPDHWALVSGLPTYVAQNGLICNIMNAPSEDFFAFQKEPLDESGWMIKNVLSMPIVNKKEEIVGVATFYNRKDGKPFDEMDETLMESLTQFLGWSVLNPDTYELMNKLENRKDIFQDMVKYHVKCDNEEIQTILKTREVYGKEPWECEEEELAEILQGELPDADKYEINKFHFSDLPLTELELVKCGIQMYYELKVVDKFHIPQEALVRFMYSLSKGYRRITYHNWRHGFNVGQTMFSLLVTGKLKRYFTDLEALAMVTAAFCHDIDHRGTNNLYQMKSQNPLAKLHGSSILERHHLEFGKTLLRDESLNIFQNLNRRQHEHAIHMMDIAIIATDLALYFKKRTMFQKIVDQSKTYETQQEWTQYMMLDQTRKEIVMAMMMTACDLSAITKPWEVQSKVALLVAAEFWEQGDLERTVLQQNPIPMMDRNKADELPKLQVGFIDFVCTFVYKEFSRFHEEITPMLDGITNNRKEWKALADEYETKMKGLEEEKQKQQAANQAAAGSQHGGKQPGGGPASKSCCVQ
Tyrosine-protein kinase Srms (Homo sapiens), sequence (Q9H3Y6 whole entry): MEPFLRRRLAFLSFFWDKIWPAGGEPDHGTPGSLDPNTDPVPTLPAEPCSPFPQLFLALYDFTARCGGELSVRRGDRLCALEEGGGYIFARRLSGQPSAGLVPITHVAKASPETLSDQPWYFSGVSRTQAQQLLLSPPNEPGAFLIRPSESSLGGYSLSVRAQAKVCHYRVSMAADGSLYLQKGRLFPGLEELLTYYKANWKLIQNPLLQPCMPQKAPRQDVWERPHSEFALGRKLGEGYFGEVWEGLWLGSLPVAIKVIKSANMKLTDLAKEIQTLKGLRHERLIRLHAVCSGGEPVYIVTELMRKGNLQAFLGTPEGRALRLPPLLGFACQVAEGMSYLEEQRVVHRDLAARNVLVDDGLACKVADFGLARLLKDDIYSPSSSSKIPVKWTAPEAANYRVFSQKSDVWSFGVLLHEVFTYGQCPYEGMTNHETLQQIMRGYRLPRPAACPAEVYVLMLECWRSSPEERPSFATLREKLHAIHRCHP
Calcium/calmodulin-dependent protein kinase type II subunit alpha (Homo sapiens), sequence (Q9UQM7 whole entry): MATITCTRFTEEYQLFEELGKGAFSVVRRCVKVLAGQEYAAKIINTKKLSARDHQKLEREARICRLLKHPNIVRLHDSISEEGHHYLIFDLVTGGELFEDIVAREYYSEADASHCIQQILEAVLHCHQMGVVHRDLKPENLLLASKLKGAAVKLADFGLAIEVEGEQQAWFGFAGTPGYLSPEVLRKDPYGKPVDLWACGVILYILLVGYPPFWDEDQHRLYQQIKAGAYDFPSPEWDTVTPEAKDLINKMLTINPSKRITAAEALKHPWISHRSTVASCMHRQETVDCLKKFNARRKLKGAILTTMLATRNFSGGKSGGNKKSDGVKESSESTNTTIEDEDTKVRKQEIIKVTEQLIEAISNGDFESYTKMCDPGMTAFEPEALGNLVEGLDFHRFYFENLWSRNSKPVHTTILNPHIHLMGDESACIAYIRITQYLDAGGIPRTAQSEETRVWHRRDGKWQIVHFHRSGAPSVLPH
Dual specificity mitogen-activated protein kinase kinase 2 (Homo sapiens), sequence (P36507 whole entry): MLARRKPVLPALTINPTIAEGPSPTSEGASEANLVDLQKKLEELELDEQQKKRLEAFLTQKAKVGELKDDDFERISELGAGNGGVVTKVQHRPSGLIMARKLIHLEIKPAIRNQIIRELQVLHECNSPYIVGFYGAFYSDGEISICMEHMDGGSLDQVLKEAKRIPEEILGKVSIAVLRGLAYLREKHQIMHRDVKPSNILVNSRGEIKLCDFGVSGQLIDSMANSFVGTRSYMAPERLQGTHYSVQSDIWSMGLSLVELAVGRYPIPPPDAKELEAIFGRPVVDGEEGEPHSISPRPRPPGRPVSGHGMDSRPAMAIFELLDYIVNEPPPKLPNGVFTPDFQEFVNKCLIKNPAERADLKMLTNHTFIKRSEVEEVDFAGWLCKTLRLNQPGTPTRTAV
Neuropeptide Y receptor type 2 (Homo sapiens), sequence (P49146 whole entry): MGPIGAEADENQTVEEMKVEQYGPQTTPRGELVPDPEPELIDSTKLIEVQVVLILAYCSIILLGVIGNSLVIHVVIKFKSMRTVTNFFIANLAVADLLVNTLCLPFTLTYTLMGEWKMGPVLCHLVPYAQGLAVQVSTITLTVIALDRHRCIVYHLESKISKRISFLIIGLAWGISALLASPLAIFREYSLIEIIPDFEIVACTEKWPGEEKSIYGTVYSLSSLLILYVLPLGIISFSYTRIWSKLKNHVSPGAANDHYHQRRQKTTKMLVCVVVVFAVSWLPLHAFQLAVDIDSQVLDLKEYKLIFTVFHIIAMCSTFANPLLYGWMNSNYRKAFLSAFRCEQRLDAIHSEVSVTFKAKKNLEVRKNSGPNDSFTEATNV

CN(C)C(=O)Cn1cc(-c2nc([C@@](C)(c3ccc(-c4cnc(N)nc4)cc3)C3CC3)no2)cn1 [BI 665915]
inactive: [1] 106% | [2] 97% | [3] 98.5% | [4] 77% | [5] 94.5% | [6] 97% | [7] 97% | [8] 123% | [9] 99% | [10] 90% | [11] 120% | [12] 96% | [13] 104% | [14] 111% | [15] 79% | [16] 96% | [17] 112% | [18] 101%
